{
  "source": "paper PMC9436767",
  "about": "“Optical control of the β2-adrenergic receptor with opto-prop-2: A cis-active azobenzene analog of propranolol” (iScience, 2022)",
  "key": {"β2-AR [1]": {"target": "T1, β2-AR (Homo sapiens, UniProt P07550)", "assay": "NanoBiT complementation: β-arrestin2 recruitment to β2-AR, Schild analysis", "method": "(§2) Mixed stable populations of HEK-β2AR-β-arrestin2, or HEK-β2AR-mGs cells were generated by selection in G418 (0.8 mg^−1) and zeocin (200 μg mL^−1) for 7–10 days, in DMEM, supplemented with 10% fetal bovine serum (FBS; Sigma Aldrich).\n(§3) The antagonist affinity (KD) was then estimated by a Schild plot of log [CR-1] against log [B] (the antagonist concentration) using the relationship: Log[CR−1]=Log[B]−LogKD."}, "β2-AR [2]": {"target": "T1, β2-AR", "assay": "Conformational β2-AR BRET sensor in HEK293A cells", "method": "The next day, cells were washed with HBSS and incubated with a 1/1000 stock solution of furimazine. […] Wells pre-incubated with 0.1% DMSO/HBSS control were treated with vehicle control.\nRaw BRET ratios were defined as acceptor emission/donor emission.\nAntagonist pKB values were calculated using the agonist potency and concentration together with the antagonist IC50 values, using the Cheng-Prusoff equation."}, "[3]": {"assay": "Time-resolved light-induced isomerization by 1H NMR and LCMS", "from_the_text": "The kinetic properties of light-induced isomer switching were further characterized using these wavelengths. Switching was monitored by ^1H NMR (Figures 2B and 2D) and LCMS (Figures 2C and 2E) analyses in tandem. The ^1H NMR signal of the ortho C-H proton adjacent to the ether function was selected as a clearly resolved signal to quantify the level of isomerization (Figure 2D).\nNMR, LC and UV-Vis spectra were plotted in GraphPad Prism 8 and were visualized by fitting the data to a second order polynomial with a smooth function, using 4 neighboring data points. […] For the time-resolved isomerization experiments, integration of the peak areas was performed with Shimadzu and MestreNova software for LC and NMR integration, respectively. The normalized peak areas over time were fitted by non-linear regression in GraphPad Prism 8 using a one-phase exponential model which yields the t1/2 value of the isomerization reaction and the extrapolated PSS (i.e. the asymptote)."}, "β2-AR [4]": {"target": "T1, β2-AR", "assay": "[3H]DHA radioligand displacement on membranes of HEK293T cells expressing β2-AR", "conditions": "for pKi: β2-AR", "method": "(§4) Membranes of HEK293T-cells transiently expressing the receptor of interest were co-incubated with the tritiated β1/β2-AR antagonist dihydroalprenolol ([^3H]DHA, Figure S2 depicts saturation binding experiments), together with increasing concentrations of the competing unlabeled ligand.\n(§5) Two million HEK293T cells were seeded in a 10cm^2 dish and were transiently transfected the next day with 1 μg human β1-AR or the β2-AR plasmid DNA, 4 μg empty pcDEF3 plasmid DNA and 30 μg linear 25 kDa polyethyleneimine (PEI; Polysciences Warrington, USA) in a 150 mM NaCl solution. […] Two days after transfection, cells were resuspended and washed (3 times) with PBS and pelleted by centrifugation steps at 1500 g. After the final centrifugation step, cell pellets were reconstituted into ice-cold Tris-HCl buffer (15 mM, supplemented with 0.3 mM EDTA and 2 mM MgCl2 at pH7.4) and dounce-homogenised by plunging the pestle 10 times with 1,500 rpm (Tamson, the Netherlands). The homogenates were frozen and thawed twice using liquid nitrogen, after which the membranes were isolated using an ultra-centrifuge L70 at 40,000 g (Beckman Coulter, USA). Cell pellets were then washed and reconstituted in ice-cold 20 mM Tris-HCl buffer supplemented with 250 mM Sucrose at pH 7.4. Finally, the membrane samples where homogenized using a 23-gauge needle, snap-frozen with liquid nitrogen and stored until further experimentation at −80 °C. The protein content was determined using a BCA protein assay kit (Thermo Scientific, USA).\n(§6) On the day of the experiment 0.25–0.5 μg membranes expressing either the β1-AR or the β2-AR, were co-incubated with [^3H]DHA (Perkin Elmer, USA) and increasing concentrations unlabeled ligand in HBSS buffer (Thermo Scientific, with Ca^2+ and Mg^2+) supplemented with 0.1% BSA for 1 h at 25 °C under gentile agitation. Either a 4 nM or 1 nM concentration of [^3H]DHA was used in combination with membranes expressing either the β1-AR or β2-AR, respectively. Binding reactions were terminated by filtration over a PEI coated GF/C filter (Perkin Elmer) using ice-cold 50 mM Tris-HCl buffer with 500 mM NaCl at pH 7.4. GF/C plates were dried at 52 °C and filter bound [^3H]DHA was quantified by adding 25 μL/well Microscint-O scintillation liquid and counting luminescence using the Wallac Microbeta counter, as described before.\n(§7) IC50 values were determined by fitting the concentration-dependent displacement of [^3H]DHA by unlabeled ligands, with a three-parameter sigmoidal model in GraphPad Prism. […] Competition binding graphs represent the pooled data of ≥3 experiments, normalized to the fitted top and bottom of the reference sigmoidal displacement curve of unlabeled DHA."}, "[5]": {"assay": "UV-Vis absorbance spectra", "assay_type": "physicochemical", "conditions": "25 μM in HBSS buffer with 1% DMSO", "experimental": "(§1) Solubility in buffer was explored for all compounds using nephelometry ([Bevan and Lloyd, 2000]) and these studies indicate good solubility of all azobenzene photoswiches up to at least 100 μM (Figure S1). […] For all compounds, 360 nm induces a large change in absorbance spectrum compared with the non-illuminated (dark) compounds (Table 1, Figure 2A, and S1), indicating photoisomerization to the cis-isomer. The absorbance peak (λmax) of Opto-prop-1-3 ranged between 319 and 347 nm for the trans-isomers and between 423 and 429 for the cis-isomers (Table 1), as is typical for azobenzene compounds ([Hauwert et al., 2018]). […] The photochemical conversions were determined by continuous illumination of the Opto-prop compounds with near UV-light (360 ± 20 nm) as 10-mM solutions in DMSO. Based on LCMS analysis, it was observed that all compounds obtained a high level of conversion to the cis-isomer with a photostationary state (PSS) of >88 area % cis-isomer (i.e. PSScis; Table 1). Subsequent back-switching to PSStrans with 434 nm maintained 22–29 area % cis-isomer (Table 1). The thermal relaxation of the PSScis state of the photoswitchable ligands was monitored over time by measuring absorbance at 254 nm. Only minor thermal relaxation to the trans-isomer could be detected at 20°C (not shown). An estimate of the relaxation rate at 20 °C was determined using a method by Priimagi et al. ([Ahmed et al., 2017]), which was performed in Hanks’ balanced salt solution (HBSS) using increased temperatures to enhance the speed of thermal relaxation. The Opto-prop ligands are all very stable as cis-isomer after illumination, with thermal relaxation half-lives of >10 days at 20 °C (See Table 1 and Figure S1).\nUV-Vis spectra were obtained using a Thermo-scientific Evolution 201 PC spectrophotometer. Illumination was executed using a Sutter instruments Lambda LS with a 300 Watt full-spectrum lamp connected to a Sutter instruments Lambda 10-3 optical filter changer equipped with 360 ± 20 nm, 400 ± 5 nm, 434 ± 9 nm and 460 ± 5 nm filters. The light intensity is 0.93 mW/mm^2 using the 360 ± 20 nm filter, 0.22 mW/mm^2 using the 400 ± 5 nm filter, 0.79 mW/mm^2 for the 434 ± 9 nm filter and 0.26 mW/mm^2 for the 460 ± 5 nm filter as measured using a Thorlabs PM16-401 power meter.\nFor the determination of the UV-Vis spectra shown in Figure 2A, compounds (25 μM in 1% DMSO/HBSS buffer) were illuminated in Hellma Suprasil quartz 114-QS cuvettes with either a 360, 400, 434 or 460 nm filter for the indicated time. For the determination of PSScis and PSStrans states by UV spectroscopy (Figures S1D–S1F), a solution of the compound in 1% DMSO/HBSS buffer (25 μM) in a vial was illuminated to PSS cis with 360 nm (typically 4–5 min) and subsequently to PSS trans with 434 nm (typically 2–5 min). UV spectra were recorded."}, "β2-AR [6]": {"target": "T1, β2-AR", "assay": "NanoBiT complementation: mini-Gαs recruitment to β2-AR, Schild analysis", "method": "as §2, §3"}, "[7]": {"assay": "PSScis and PSStrans by LC analysis", "assay_type": "physicochemical", "conditions": "LCMS area at isosbestic wavelength", "experimental": "as §1\nFor the determination of PSScis and PSStrans values by LC analysis (Table 1), a solution of the compound in DMSO (10 mM) was illuminated to PSScis with 360 nm and subsequently to PSStrans with 434 nm. PSS aliquots were withdrawn, diluted with MeCN and subjected to LCMS analysis with the corresponding isosbestic points wavelength: 278, 263 and 308 nm for Opto-prop-1-3, respectively."}, "β1-AR": {"target": "β1-AR (Homo sapiens, UniProt P08588)", "sequence (P08588 whole entry)": "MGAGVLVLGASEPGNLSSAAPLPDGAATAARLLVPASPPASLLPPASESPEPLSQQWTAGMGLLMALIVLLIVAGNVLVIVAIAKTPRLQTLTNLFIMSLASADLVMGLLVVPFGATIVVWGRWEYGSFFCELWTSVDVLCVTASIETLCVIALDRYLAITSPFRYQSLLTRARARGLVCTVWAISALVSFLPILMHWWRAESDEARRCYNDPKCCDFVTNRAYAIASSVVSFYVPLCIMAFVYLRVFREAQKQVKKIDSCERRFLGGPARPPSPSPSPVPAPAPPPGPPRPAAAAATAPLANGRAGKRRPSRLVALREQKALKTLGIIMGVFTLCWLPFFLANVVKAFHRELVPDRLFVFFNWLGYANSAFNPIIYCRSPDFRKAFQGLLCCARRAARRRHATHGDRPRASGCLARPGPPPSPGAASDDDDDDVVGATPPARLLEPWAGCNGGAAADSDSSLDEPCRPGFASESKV", "assay": "[3H]DHA radioligand displacement on membranes of HEK293T cells expressing β1-AR", "conditions": "for pKi: β1-AR", "method": "as §4, §5, §6, §7"}, "[8]": {"conditions": "at PSScis, agonist isoprenaline"}, "[9]": {"conditions": "fold difference between Ki of trans and Ki at PSScis"}, "[10]": {"conditions": "isomer state with higher affinity"}, "[11]": {"conditions": "pKi PSScis, illuminated to PSScis (360 nm) before experiment"}, "[12]": {"conditions": "pKi trans, without prior illumination (trans-isomer)"}},
  "note": "pIC50, pKi: −log10 of the molar value. “And” between values parts separate entries of the source, which are not always exact repeats. Equal entries are not always repeated.",
  "data": [
    {"compound": "CC(C)NCC(O)COc1cccc(N=Nc2ccccc2)c1", "note": "(centres unmarked) [Opto-prop-2]", "values": [
      {"measurement": "Kb", "setting": "β2-AR [1]", "value": 25.1, "unit": "nM"},
      {"measurement": "slope of the Schild-plot, β-arrestin2 recruitment", "setting": "β2-AR [1]; [8]", "value": 0.9},
      {"measurement": "pIC50", "setting": "β2-AR [2]", "value": 7.50},
      {"measurement": "Kb", "setting": "β2-AR [2]", "value": 2, "unit": "nM"},
      {"measurement": "isomerization half-life, 360 nm", "setting": "[3]; 1H NMR, 10 mM in DMSO-d6", "value": 4, "unit": "min"},
      {"measurement": "isomerization half-life, 434 nm", "setting": "[3]; 1H NMR, 10 mM in DMSO-d6", "value": 3, "unit": "min"},
      {"measurement": "cis-isomer at PSScis", "setting": "[3]; 1H NMR, 360 nm, 10 mM in DMSO-d6", "value": 86, "unit": "mol%"},
      {"measurement": "cis-isomer at PSStrans", "setting": "[3]; 1H NMR, 434 nm, 10 mM in DMSO-d6", "value": 20, "unit": "mol%"},
      {"measurement": "fitted cis-isomer at PSScis", "setting": "[3]; LCMS, 360 nm", "value": 94, "unit": "%"},
      {"measurement": "isomerization half-life to PSScis", "setting": "[3]; LCMS, 360 nm", "value": 4, "unit": "min"},
      {"measurement": "fitted cis-isomer at PSStrans", "setting": "[3]; LCMS, 434 nm", "value": 23, "unit": "%"},
      {"measurement": "isomerization half-life to PSStrans", "setting": "[3]; LCMS, 434 nm", "value": 3, "unit": "min"},
      {"measurement": "difference in binding affinity β2-AR vs β1-AR", "setting": "β2-AR [4]; cis-isomer", "value": 1.9, "unit": "log unit"},
      {"measurement": "selectivity in binding β2-AR over β1-AR", "setting": "β2-AR [4]; cis-isomer (PSScis)", "value": 78, "unit": "fold"},
      {"measurement": "fold Ki trans vs PSScis at β2-AR", "setting": "β2-AR [4]; [9]", "value": 587, "unit": "fold"},
      {"measurement": "Active state at β2-AR", "setting": "β2-AR [4]; [10]", "value": "cis"},
      {"measurement": "pKi", "setting": "β2-AR [4]; [11]", "value": 8.60},
      {"measurement": "pKi", "setting": "β2-AR [4]; pKi at PSStrans, at PSStrans (434 nm back-switching)", "value": 7.50},
      {"measurement": "pKi", "setting": "β2-AR [4]; [12]", "value": 5.80},
      {"measurement": "λmax cis", "setting": "[5]; cis-isomer", "value": 424, "unit": "nm"},
      {"measurement": "λmax trans", "setting": "[5]; trans-isomer", "value": 319, "unit": "nm"},
      {"measurement": "Kb", "setting": "β2-AR [6]", "value": 25.1, "unit": "nM"},
      {"measurement": "slope of the Schild-plot, mini-Gαs recruitment", "setting": "β2-AR [6]; [8]", "value": 1.2},
      {"measurement": "PSScis (% cis-isomer)", "setting": "[7]; 10 mM in DMSO after illumination with 360 nm", "value": "92.8 ± 0.4", "unit": "% cis-isomer"},
      {"measurement": "PSStrans (% cis-isomer)", "setting": "[7]; 10 mM in DMSO, 360 nm then 434 nm", "value": "26 % cis-isomer and 25.9 ± 0.4 % cis-isomer"},
      {"measurement": "fold Ki trans vs PSScis at β1-AR", "setting": "β1-AR; [9]", "value": 21, "unit": "fold"},
      {"measurement": "Active state at β1-AR", "setting": "β1-AR; [10]", "value": "cis"},
      {"measurement": "pKi", "setting": "β1-AR; [11]", "value": 6.70},
      {"measurement": "pKi", "setting": "β1-AR; [12]", "value": 5.30}
    ]}
  ]
}
